Literature values in patent US20090047245A1, “Prognostic chronic hepatitis C biomarkers” (priority 2007, published 2009).

System: HCV

NC(=O)c1ncn([C@@H]2O[C@H](CO)[C@@H](O)[C@H]2O)n1 [ribavirin]
increase of the sustained response rate (ribavirin added to interferon): two- to three-fold | effect on HCV (ribavirin by itself): little effect on HCV
